# Source: ChEMBL document CHEMBL5053520, “Searching for an ideal SERM: Mining tamoxifen structure-activity relationships” (Bioorg Med Chem Lett, 2021)
# Molecular target: T1, Estrogen receptor (Homo sapiens, UniProt P03372)
# T1 sequence (P03372 whole entry): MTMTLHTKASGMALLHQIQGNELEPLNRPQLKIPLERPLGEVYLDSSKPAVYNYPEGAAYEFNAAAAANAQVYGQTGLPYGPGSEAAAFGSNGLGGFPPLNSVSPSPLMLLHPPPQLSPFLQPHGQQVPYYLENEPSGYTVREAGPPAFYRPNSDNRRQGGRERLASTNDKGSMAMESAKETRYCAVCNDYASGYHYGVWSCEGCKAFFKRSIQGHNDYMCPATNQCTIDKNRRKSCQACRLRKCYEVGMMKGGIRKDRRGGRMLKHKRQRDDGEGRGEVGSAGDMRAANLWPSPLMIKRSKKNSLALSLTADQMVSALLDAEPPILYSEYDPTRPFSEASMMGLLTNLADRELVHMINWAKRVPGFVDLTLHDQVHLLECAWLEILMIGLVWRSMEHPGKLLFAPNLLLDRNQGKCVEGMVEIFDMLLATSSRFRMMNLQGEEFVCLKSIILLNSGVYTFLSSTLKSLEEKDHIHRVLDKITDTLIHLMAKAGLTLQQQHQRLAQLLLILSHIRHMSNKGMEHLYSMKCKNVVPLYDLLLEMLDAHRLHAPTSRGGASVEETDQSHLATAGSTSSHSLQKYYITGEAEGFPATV
# Test: Displacement of fluorescent labeled-ligand from ERalpha (unknown origin) by competitive binding assay
row,Structure (SMILES),IC50
1,CC/C(=C(\c1ccc(O)cc1)c1cccc(OCCN(CC)CC)c1)c1ccccc1,35.5 nM
2,CC/C(=C(\c1ccccc1)c1cccc(OCCN(CC)CC)c1)c1ccccc1,571 nM
3,CC/C(=C(\c1ccccc1)c1cccc(OCCN2CCCCC2)c1)c1ccccc1,422 nM
4,CC/C(=C(\c1ccccc1)c1cccc(OCCCN(C)C)c1)c1ccccc1,124 nM
5,CC/C(=C(\c1ccccc1)c1cccc(OCCCN2CCCC2)c1)c1ccccc1,359 nM
6,CC/C(=C(\c1ccccc1)c1cccc(OCCCN2CCCCC2)c1)c1ccccc1,333 nM
7,CC/C(=C(\c1ccc(O)cc1)c1cccc(OCCCN2CCCCC2)c1)c1ccccc1,39.1 nM
8,CC/C(=C(\c1ccccc1)c1cccc(OCCN(C)C)c1)c1ccccc1,255 nM
9,CC/C(=C(\c1ccccc1)c1cccc(OCCN2CCCC2)c1)c1ccccc1,81 nM
10,CC/C(=C(\c1ccccc1)c1cccc(OCCCN(CC)CC)c1)c1ccccc1,348 nM

# The next compounds have a lower IC50 than those just listed; values first:
row,IC50,Structure (SMILES)
1,8.8 nM,CC/C(=C(\c1ccc(O)cc1)c1cccc(OCCCN(C)C)c1)c1ccccc1
2,21 nM,CC/C(=C(\c1ccc(O)cc1)c1cccc(OCCN2CCCCC2)c1)c1ccccc1
3,24.3 nM,CC/C(=C(\c1ccc(O)cc1)c1cccc(OCCN(C)C)c1)c1ccccc1
4,10.7 nM,CC/C(=C(\c1ccc(O)cc1)c1cccc(OCCCN2CCCC2)c1)c1ccccc1
5,15.1 nM,CC/C(=C(\c1ccc(O)cc1)c1cccc(OCCCN(CC)CC)c1)c1ccccc1
6,16.3 nM,CC/C(=C(\c1ccc(O)cc1)c1cccc(OCCN2CCCC2)c1)c1ccccc1
